# Reference: patent US20230348394A1, “COMPOSITIONS AND METHODS FOR TREATING MUSCULAR DYSTROPHIES” (The Regents of the University of California, priority 2020, published 2023)
# Assays:
# mdx myotubes = experiment: Membrane stability assay (creatine kinase release after osmotic shock); assay type: cell-based, murine; conditions: for CK release after osmotic shock: 5 μM
# Experimental: The membrane stability assay was modified from previously described methods. The solutions for osmotic shock were prepared from a base solution containing 5 mM HEPES, 5 mM KCl, 1 mM MgCl2, 5 mM NaCl, 1.2 mM CaCl2), and 1 mM glucose. Sucrose was added to the base solutions to reach osmolarities of 50, 80, 100, 280, and 300 mosmol. The actual osmolarity was determined using a VAPRO vapor pressure osmometer (Wescor Inc.) Myotubes were treated for 48 hours and at day 4 of differentiation were subjected to 20 mins of osmotic shock at 37° C. using 28.5 to 223.5 milliosmole (mosmol) solutions. The supernatant was collected and centrifuged to separate cell debris. Adherent cells were trypsinized and pelleted before lysis with water and 3 freeze-thaw cycles. The Creatine Kinase Assay (Sekisui Diagnostics) was used to measure creatine kinase (CK) levels in both the supernatant and lysate fractions. In a 96-well plate, 4 μl of each sample and 140 μl of reagent was loaded per well in triplicate. The U/L of CK was calculated as follows: (mOD/min)(total volume in mL)(dilution factor)/(6.22M-lcm-1)(light path in cm)(sample volume in mL). The percent CK release was calculated as follows: CKextracellular/(CKextracellular+CKintracellular)*100.
# The assay entails subjecting myotubes to osmotic shock, which causes cell swelling and membrane damage, allowing for intracellular CK to be released from the cell into the surrounding medium (FIG. 5a).
# To assess the effect of SSPN knockdown on membrane stability in the absence of any compound treatment, we transfected mdx myotubes with 24 and 48 nM of scramble and SSPN siRNA and subjected the cells to osmotic shock with 45 mosmol solutions. […] We treated mdx myotubes with 10 μM of OT-9 in parallel with 24 nM of scramble or SSPN siRNA for 48 hours prior to osmotic shock and discovered that depletion of SSPN increased the CK release from 6.5% to 8% (FIG. 5d).
# [1] = system: SSPN-HiBiT protein (sarcospan); experiment: C2C12 SSPN-HiBiT protein reporter assay (12-well and 384-well format); assay type: cell-based, murine
# Experimental: C2C12 SSPN-HiBiT myoblasts were seeded at 25,000 cells per well in 2 ml of growth media in 12 well-plates and incubated for 3 days. Upon reaching confluency, the growth media was replaced with 2 ml of differentiation media. At day 2 of differentiation, the media on the cells was replaced with 2 ml of differentiation media containing compounds at a final concentration of 5.5 μM in 0.06% DMSO. For vehicle control-treated cells, 0.06% DMSO was added to the cells. After 48 hrs the cells were washed with PBS and frozen for 2-24 hrs. The plates containing cells were thawed on ice and 100 μl of ice-cold modified RIPA buffer containing 1% Triton X-100, 0.05% DOC, 0.05% SDS, and Halt Protease Inhibitor was added to each well. Cells were scratched, transferred into 1.5 ml tubes, and centrifuged for 20 min at 16,000×g at 4° C. The cell lysates were transferred into new tubes. DC assay was performed on cell lysates to determine protein concentration. White walled, white bottom 384-well microplates (Greiner) were prefilled with 15 μl of PBS and 15 μl of cell lysates were added to each well in triplicate. Then 30 μl Nano-Glo HiBiT Lytic Detection working solution was added to each well and incubated for 30 min at RT with shaking. The luminescence was measured on the EnVision plate reader and the signal was normalized to protein concentration and signal from vehicle-treated controls.
# C2C12 SSPN-HiBiT myoblasts were seeded at 500 cells per well in 50 μl of growth media in 384-well white, clear bottom microplates (Greiner) and incubated for 3 days. Upon reaching confluency, the growth media was replaced with 50 μl of differentiation media consisting of phenol-red free DMEM with 2% horse serum (Sigma-Aldrich) using an EL406 combination washer dispenser (Biotek). At day 2 of differentiation, the media on the cells was aspirated, left with a residual volume of 10 μl, and replaced with 30 μl of fresh differentiation media. 0.5 μl of small molecule in DMSO or DMSO alone (for vehicle and positive control wells) were added to each well using a Biomek Fx (Beckman). To ensure proper mixing of the DMSO, 50 μl of additional differentiation media was added to all wells except the positive control treated wells. The final concentration of compound in each treated well was 0.5-10 μM in 0.55% DMSO and 0.55% DMSO only for vehicle. After 48 hrs of incubation, the plate was washed with phenol red-free DMEM, aspirated, and left with a residual volume of 5 μl using EL406 combination washer dispenser. After the wash, 25 μl of differentiation media containing 12 μM DRAQ5 nuclear stain was added to reach a final concentration 10 μM in each well and incubated for 15 min at 37° C. with 5% CO2. The cells were imaged using ImageXpress Micro Confocal High Content Imaging System (Molecular Devices). The nuclei count of imaged cells were determined using a custom module analysis in MetaXpress Analysis software (Molecular Devices). After imaging and analysis, the plate was aspirated, left with a residual volume of 5 μl and placed at −80° C. for 2-24 hrs. The plate was thawed at RT and 25 μl of PBS was added, followed by 30 μl of Nano-Glo HiBiT Lytic Detection working solution prepared according manufacturer recommendations. Luminescence was measured using the EnVision plate reader and the signal of each well was normalized to nuclei count and signal from vehicle-treated controls.
# In order to effectively test new analogues, we created method for detecting SSPN protein in cells, e.g., SSPN-HiBiT. SSPN-HiBiT based on a murine C2C12 cell line expressing endogenous SSPN protein with an N-term fusion protein called the HiBiT, an 11 amino acid subunit of a luciferase enzyme (FIG. 10a). The SSPN-HiBiT protein is quantified through addition of substrate and a larger subunit of the luciferase enzyme to catalyze the formation of luminescent signal. […]
structure (smiles),measurement,setting,value
CCN(CC)c1ccc2cc(C(=O)Nc3ccc(C(=O)N4CCCCCC4)cc3)c(=O)oc2c1 [OT-9],CK release after osmotic shock,"mdx myotubes; 48 hours, 28.5 mosmol solution",did not reduce CK release
same,CK release after osmotic shock,"mdx myotubes; 48 hours, 45, 63 and 223.5 mosmol solutions",significantly reduced CK release
same,CK release,"mdx myotubes; 10 μM OT-9 with 24 nM SSPN siRNA, 48 hours",8%
same,CK release,"mdx myotubes; 10 μM OT-9 with 24 nM scramble siRNA, 48 hours",6.5%
same,SSPN-HiBiT reporter response,"[1]; 0.5-10 μM, 12-well and 384-well plate formats",dose-sensitive increases in SSPN
same,"SSPN-HiBiT, fold change over vehicle","[1]; Table 1, *p<0.05",2.29* fold change over vehicle
